{"source": "paper PMC8559537", "about": "(ACS infectious diseases, 2021)", "origin": "cited, not measured here", "system": "nanoluciferase (Nluc) expressing C. parvum", "settings": "positive control, 100 mg/kg"}
{"smiles": "CCOc1ccc2cc(-c3nn(CC4CCN(C)CC4)c4ncnc(N)c34)ccc2n1", "note": "[BKI-1369]", "values": [{"measurement": "effect on infection in the IFN-γ KO mouse model", "value": "reduce infection quickly"}]}
